US9399666B2, “Inhibiting interaction between the HIF-1ALPHA and p300/CBP with hydrogen bond surrogate-based helices” (New York University, priority 2008, dated 2016)
Values belong to the molecule of their own block, whether it stands above or below them. Peptide text beside a SMILES is read from it.

Assays:
p300 [1] = molecular target: p300 (Homo sapiens, UniProt Q09472); assay: Affinity for p300 by isothermal titration calorimetry; format: binding; conditions: isothermal titration calorimetry, p300; read-out: Kd (ITC)
From the text: Helix αA of HIF-1α C-TAD, shown in FIG. 1A and FIG. 1C, is critical for the interaction between the CH1 domain and HIF-1α, because mutation of its residues or hydroxylation of Asn803 is known to disrupt this complex and inhibit HIF-1α mediated transcription (Freedman et al., “Structural Basis for Recruitment of CBP/p300 by Hypoxia-inducible Factor-1α,” Proc. Nat'l Acad. Sci. USA 99:5367-72 (2002); Dames et al., “Structural Basis for Hif-1α/CBP Recognition in the Cellular Hypoxic Response,” Proc. Nat'1 Acad. Sci. USA 99:5271-6 (2002). Development of HBS helices as potential inhibitors of VEGF transcription was begun by mimicking the aA helix region of HIF-1. This helix consists of eight residues, […] (SEQ ID NO: 111), and features three residues, Asp-Cys-Glu, critical for binding with p300/CBP. Several linear peptides and their HBS α-helix analogs were designed to gauge the potential of these molecules to inhibit VEGF transcription in cell culture. Each unconstrained peptide and HBS helix was synthesized using the procedures described in (Dimartino et al., “Solid-phase Synthesis of Hydrogen-bond Surrogate-derived α-Helices,” Org. Lett. 7:2389-92 (2005); Chapman & Arora, “Optimized Synthesis of Hydrogen-bond Surrogate Helices: Surprising Effects of Microwave Heating on the Activity of Grubbs Catalysts,” Org. Lett. 8:5825-8 (2006)). The percent helicity of each peptide was determined using circular dichroism spectroscopy in 10 mM phosphate buffered saline as described in (Wang et al., “Evaluation of Biologically Relevant Short α-Helices Stabilized by a Main-chain Hydrogen-bond Surrogate,” J. Am. Chem. Soc. 128:9248-56 (2006)). The affinity of each peptide for p300 was measured by isothermal titration calorimetry analysis (Wiseman et al., “Rapid Measurement of Binding Constants and Heats of Binding Using a New Titration calorimeter,” Anal. Biochem. 179:131-7 (1989); Freire et al., “Isothermal Titration calorimetry,” Anal. Chem. 62:A950-A959 (1990); Chervenak & Toone, “Calorimetric Analysis of the Binding of Lectins with Overlapping Carhohydrate-binding Ligand Specificities,” Biochemistry 34:5685-95 (1995); Aki et al., “Competitive Binding of Drugs to the Multiple Binding Sites on Human Serum Albumin. A calorimetric Study,” J Thermal Anal. calorim. 57:36170 (1999); Graziano et al., “Linkage of Proton Binding to the Thermal Unfolding of Sso7d from the Hyperthermophilic Archaebacterium Sulfolobus solfataricus,” Int'l J. Biol. Macromolecules 26:45-53 (1999); Pluschke & Mutz, “Use of Isothermal Titration calorimetry in the Development of Molecularly Defined Vaccines,” J Thermal Anal. calorim. 57:377-88 (1999); Corbell et al., “A Comparison of Biological and calorimetric Analyses of Multivalent Glycodendrimer Ligands for Concanavalin A,” Tetrahedron-Asymmetry 11:95-111 (2000)). The ability of each peptide to downregulate VEGF transcription in cell culture was evaluated by […] quantitative RT-PCR, as described above. The cytotoxicity of each peptide was determined by monitoring cellular growth and population doubling in the presence of individual peptides at 1μM concentration.

MDA-MB-231-HRE-Luc cells = format: cell-based
Procedure: MDA-MB-231-HRE-Luc cells were maintained in high glucose Dulbecco's Modified Eagle's Medium (“DMEM”) supplemented with 10% fetal bovine serum and 0.4 g/L Geneticin (G418 sulfate, RPI Corporation). Cells were plated in 24-well dishes (BD Falcon) at a density of […] using 1 mL of a 6.5×10^4 cell/mL suspension. […] Cells were incubated for 6 hours at 37° C. in a humidified atmosphere with 5% CO2. Hypoxia was induced by adding desferoxamine mesylate (DFO, Sigma) to a final concentration of 300 μM, and cells were incubated for an additional 18 hours. Whole cell lysates were isolated by washing the cells twice with ice cold PBS and then adding 150 μL of Cell Culture Lysis Reagent (“CCLR,” Promega). Lysate was collected, centrifuged at 13,000 rpm at 4° C., aliquoted, and stored at −80° C. Luciferase assays were conducted according to the manufacturer's instructions (Promega) using a Turner TD-20e Luminometer. Relative light intensity measurements were normalized by performing a Bradford assay to determine the protein content of the lysate used in the luciferase assay. Briefly, 50 μL of cell lysate/luciferase assay reagent mix was added to 200 μL of Bradford reagent and 750 μL of Millipore water in a 1.5 mL cuvette. Protein standards were created in the range of 1 μg/mL to 10 μg/mL with the appropriate amount of a 1 mg/mL BSA solution. Absorbance was measured at 595 nm using a DU-800 spectrophotometer. The experiments were carried out in triplicate with the error bars calculated as standard error of the mean.

circular dichroism = conditions: 10 mM phosphate buffered saline (par. 0128, each peptide; pH given only for 22 and 25, Fig 6B), pH 7.4, ns °C
[2] = Percent helicity by circular dichroism spectroscopy; format: physicochemical
From the text: Helix αA of HIF-1α C-TAD, shown in FIG. 1A and FIG. 1C, is critical for the interaction between the CH1 domain and HIF-1α, because mutation of its residues or hydroxylation of Asn803 is known to disrupt this complex and inhibit HIF-1α mediated transcription (Freedman et al., “Structural Basis for Recruitment of CBP/p300 by Hypoxia-inducible Factor-1α,” Proc. Nat'l Acad. Sci. USA 99:5367-72 (2002); Dames et al., “Structural Basis for Hif-1α/CBP Recognition in the Cellular Hypoxic Response,” Proc. Nat'1 Acad. Sci. USA 99:5271-6 (2002). Development of HBS helices as potential inhibitors of VEGF transcription was begun by mimicking the aA helix region of HIF-1. This helix consists of eight residues, […] (SEQ ID NO: 111), and features three residues, Asp-Cys-Glu, critical for binding with p300/CBP. Several linear peptides and their HBS α-helix analogs were designed to gauge the potential of these molecules to inhibit VEGF transcription in cell culture. Each unconstrained peptide and HBS helix was synthesized using the procedures described in (Dimartino et al., “Solid-phase Synthesis of Hydrogen-bond Surrogate-derived α-Helices,” Org. Lett. 7:2389-92 (2005); Chapman & Arora, “Optimized Synthesis of Hydrogen-bond Surrogate Helices: Surprising Effects of Microwave Heating on the Activity of Grubbs Catalysts,” Org. Lett. 8:5825-8 (2006)). The percent helicity of each peptide was determined using circular dichroism spectroscopy in 10 mM phosphate buffered saline as described in (Wang et al., “Evaluation of Biologically Relevant Short α-Helices Stabilized by a Main-chain Hydrogen-bond Surrogate,” J. Am. Chem. Soc. 128:9248-56 (2006)). The affinity of each peptide for p300 was measured by isothermal titration calorimetry analysis (Wiseman et al., “Rapid Measurement of Binding Constants and Heats of Binding Using a New Titration calorimeter,” Anal. Biochem. 179:131-7 (1989); Freire et al., “Isothermal Titration calorimetry,” Anal. Chem. 62:A950-A959 (1990); Chervenak & Toone, “Calorimetric Analysis of the Binding of Lectins with Overlapping Carhohydrate-binding Ligand Specificities,” Biochemistry 34:5685-95 (1995); Aki et al., “Competitive Binding of Drugs to the Multiple Binding Sites on Human Serum Albumin. A calorimetric Study,” J Thermal Anal. calorim. […] The ability of each peptide to downregulate VEGF transcription in cell culture was evaluated by […] quantitative RT-PCR, as described above. The cytotoxicity of each peptide was determined by monitoring cellular growth and population doubling in the presence of individual peptides at 1μM concentration.

[3] = tested on: VEGF transcription in HeLa cells; assay: VEGF gene expression by real-time qRT-PCR; format: cell-based; conditions: FIG. 7
From the text: Real-time qRT-PCR was used to determine the effect of HBS helices on the level of expression of VEGF and GLUT1 genes in HeLa and MCF-7 cells, both under normoxic and hypoxic conditions. For VEGF analysis, the forward primer 5′AGGCCAGCACATAGGAGAGA-3′ (SEQ ID NO: 105) and reverse primer 5′TTTCCCTTTCCTCGAACTGA-3′ (SEQ ID NO:106) were used to amplify a 104-bp fragment from the […] of the gene. For GLUT1 (SLC2A1) analysis, the following sequences were utilized to yield a product of 179 bp: forward sequence 5′-TAGAAACATGGTTTTGAAATGC-3′ (SEQ ID NO:107), reverse sequence 5′-GGTAACAGGGATCAAACAGATT-3′ (SEQ ID NO:108). The levels of expression of β-glucuronidase were used as endogenous controls, since they remain unchanged under experimental conditions. The forward primer 5′-CTCATTTGGAATTTTGCCGATT-3′ (SEQ ID NO:109) and reverse primer 5′-CCGAGTGAAGATCCCCTTTTTA-3′ (SEQ ID NO:110) were used for this gene. Temperature cycling and detection of the SYBR green emission were performed with an ABI 7300 real-time PCR instrument. Data were analyzed with ABI Sequence Detection System, version 1.2. Statistical analysis was performed with the data from six independent experiments. The experiment was performed with Applied Biosystems SYBR Green RT-PCR master mix.

p300 [4] = molecular target: T1, p300 (UniProt Q09472 323-423, limits assumed); assay: isothermal titration calorimetry
T1 construct: also called p300/CBP
T1 sequence (Q09472 323-423 limits assumed): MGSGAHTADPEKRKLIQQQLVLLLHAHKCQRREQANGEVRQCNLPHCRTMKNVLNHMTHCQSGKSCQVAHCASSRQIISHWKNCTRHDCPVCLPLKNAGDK

Molecule: CC(C)[C@H](NC(=O)[C@H](CCC(=O)O)NC(=O)[C@H](CS)NC(=O)[C@H](CC(=O)O)NC(=O)[C@H](Cc1ccc(O)cc1)N1CC=CCCC(=O)N[C@@H]([C@@H](C)O)C(=O)N[C@@H](C)C1=O)C(=O)N[C@@H](CC(N)=O)C(=O)N[C@@H](C)C(N)=O [Compound 20]
Kd (p300 [1]): 540 nM
% Transcription inhibition in cell culture (Luc) (MDA-MB-231-HRE-Luc cells; 1000 nM): 0 ± 5 (Luc) %
helicity (circular dichroism): 44%

B1: peptide 25 (AcGTAADCEYNAR-NH2) (peptide)
peptide: Ac-GTAADCEYNAR-NH2
notes: Unconstrained analog of HBS helix 22; also called linear control peptide 25; control peptide 25
Kd (p300 [4]): 825 nM

B2: peptide 23 (AcTSYDCEVNA-NH2) (peptide)
peptide: Ac-TSYDCEVNA-NH2
notes: also called linear peptide 23; unconstrained peptide 23
Kd (p300 [4]): 1350 nM

The next lines start with results.

Kd (p300 [1]): 420 ± 35 nM
Molecule: C[C@H](NC(=O)[C@H](CC(N)=O)NC(=O)[C@H](Cc1ccc(O)cc1)NC(=O)[C@H](CCC(=O)O)NC(=O)[C@H](CS)NC(=O)[C@H](CC(=O)O)NC(=O)[C@H](C)N1CC=CCCC(=O)N[C@@H]([C@@H](C)O)C(=O)N[C@@H](C)C1=O)C(=O)N[C@@H](CCCNC(=N)N)C(N)=O [Compound 22]
helicity (circular dichroism): 53%

Helical content (in words) [2]: appears to be unstructured
% Helicity ([2]; 10 mM phosphate buffered saline): 15%
Molecule: CC(=O)NCC(=O)N[C@H](C(=O)N[C@@H](C)C(=O)N[C@@H](C)C(=O)N[C@@H](CC(=O)O)C(=O)N[C@@H](CS)C(=O)N[C@@H](CCC(=O)O)C(=O)N[C@@H](Cc1ccc(O)cc1)C(=O)N[C@@H](CC(N)=O)C(=O)N[C@@H](C)C(=O)N[C@@H](CCCNC(=N)N)C(N)=O)[C@@H](C)O [Compound 25] (Ac-GTAADCEYNAR-NH2)
Inhibition of VEGF transcription in HeLa cells (in words) [3]: negligible effect
% Transcription inhibition in cell culture (Luc & RT-PCR) (MDA-MB-231-HRE-Luc cells; luciferase assay and qRT-PCR, 1 μM peptide): 8 ± 3%
helicity (circular dichroism): 15%

Kd (p300 [4]): 1220 nM
B3: peptide 24 (AcTAYDCEVNA-NH2) (peptide)
peptide: Ac-TAYDCEVNA-NH2
notes: Unconstrained analog of HBS peptide 20 (alanine in place of serine-797); also called linear peptide 24; unconstrained peptide 24
